We go through 1 molecule from PMC3079629, “Cloning and characterization of a 9-lipoxygenase gene induced by pathogen attack from Nicotiana benthamiana for biotechnological application” (BMC Biotechnology, 2011).

The target of this test is T1, Nb-9-LOX (Nicotiana benthamiana, UniProt R4S2V6).
T1 construct: protein starts MSLEKI, ends NSVSI (from primers)
T1 sequence (R4S2V6 1-862): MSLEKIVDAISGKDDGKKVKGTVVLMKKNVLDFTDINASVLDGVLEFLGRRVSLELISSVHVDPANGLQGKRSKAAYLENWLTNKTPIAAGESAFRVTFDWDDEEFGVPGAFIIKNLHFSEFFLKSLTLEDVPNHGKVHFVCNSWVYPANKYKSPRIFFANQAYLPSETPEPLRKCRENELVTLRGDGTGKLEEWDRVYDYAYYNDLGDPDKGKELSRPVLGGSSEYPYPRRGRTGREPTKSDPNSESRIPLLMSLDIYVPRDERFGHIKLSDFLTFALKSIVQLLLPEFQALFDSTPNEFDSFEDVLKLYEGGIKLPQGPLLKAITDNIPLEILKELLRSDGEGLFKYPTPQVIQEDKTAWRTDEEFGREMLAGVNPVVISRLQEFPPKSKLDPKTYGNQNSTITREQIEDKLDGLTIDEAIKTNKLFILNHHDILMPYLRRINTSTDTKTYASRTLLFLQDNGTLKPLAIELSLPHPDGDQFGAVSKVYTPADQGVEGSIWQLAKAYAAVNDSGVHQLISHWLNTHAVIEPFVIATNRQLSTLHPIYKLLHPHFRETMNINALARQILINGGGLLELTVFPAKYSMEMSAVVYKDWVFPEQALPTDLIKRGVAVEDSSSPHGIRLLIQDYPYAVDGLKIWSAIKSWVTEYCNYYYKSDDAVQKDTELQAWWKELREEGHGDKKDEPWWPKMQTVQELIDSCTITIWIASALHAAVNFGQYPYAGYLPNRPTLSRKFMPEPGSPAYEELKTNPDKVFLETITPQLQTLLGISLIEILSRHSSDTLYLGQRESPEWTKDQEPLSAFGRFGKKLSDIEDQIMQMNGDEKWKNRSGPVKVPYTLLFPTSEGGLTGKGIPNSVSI
Nature of the test: spectrophotometry at […] nm, conjugated diene formation, crude yeast extract. Format: biochemical. Conditions: 50 mM sodium phosphate; pH 6.0 presumed for the Km (used after the optimum was found); room temperature; O2.

SMILES strings stand for the structures.

Consider `CCCCC/C=C\C/C=C\CCCCCCCC(=O)O` [linoleic acid], for which the Km – broadly, the substrate concentration at which the rate is half of its maximum – was found to be 3.9 µM.
